Measured values as given in publication PMC5100313, “A new tool for the chemical genetic investigation of the Plasmodium falciparum Pfnek-2 NIMA-related kinase” (Malaria Journal, 2016).

Molecular target: T1, Pfnek-2(V24C) (Plasmodium falciparum, UniProt C0H4G2, V24C)
T1 construct: gene PF3D7_0525900
T1 sequence (C0H4G2 1-286 V24C): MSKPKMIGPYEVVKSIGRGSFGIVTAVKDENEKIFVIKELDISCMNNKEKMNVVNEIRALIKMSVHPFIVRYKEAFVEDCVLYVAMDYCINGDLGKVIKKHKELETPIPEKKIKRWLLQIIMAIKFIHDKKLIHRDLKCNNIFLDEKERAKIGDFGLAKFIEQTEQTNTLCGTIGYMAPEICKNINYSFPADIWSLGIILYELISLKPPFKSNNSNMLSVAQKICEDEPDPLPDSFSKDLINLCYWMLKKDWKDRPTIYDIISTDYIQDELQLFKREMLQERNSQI
Test: in vitro […]-ATP kinase assay (MBP substrate), washout, intact-protein LC-MS (mass shift […] Da)
Type: biochemical

C#Cc1nc(Nc2ccc(S(N)(=O)=O)cc2)nc2[nH]cnc12 [NCL-00016066, 4-(6-ethynyl-9H-purin-2-ylamino) benzene sulfonamide]
IC50: 501 nM
